PubChem BioAssay (NCI)
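Dose response: 5 concentrations. Exposure: 48 h. Format: 96-well plates. Endpoint: linear interpolation; highest concentration if not reached. TGI is the concentration that stops growth completely.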 Where a SMILES comes first, the peptide text is derived from it. [ ]: non-standard residue; d: D form. The star is where a group is joined. Bn2Val = CC(C)[C@@H](C(=O)*)N(Cc1ccccc1)Cc1ccccc1; NH(4-F-benzyl) = Fc1ccc(CN*)cc1; NMeV = CN[C@H](C(=O)O)C(C)C; dNMeA = CN[C@H](C)C(=O)O

How the values were obtained:
Test in all cases: DTP human tumour cell line panel, 48 h
MDA-MB-231 breast = system: MDA-MB-231 breast
TK-10 renal = system: TK-10 renal
HT29 colon = system: HT29 colon
UO-31 renal = system: UO-31 renal
OVCAR-8 ovarian = system: OVCAR-8 ovarian
NCI-H522 lung = system: NCI-H522 lung
SNB-19 CNS = system: SNB-19 CNS
NCI-H23 lung = system: NCI-H23 lung
NCI-H226 lung = system: NCI-H226 lung
HCC-2998 colon = system: HCC-2998 colon
KM12 colon = system: KM12 colon
SF-268 CNS = system: SF-268 CNS
EKVX NSCLC = system: EKVX NSCLC
IGROV1 ovarian = system: IGROV1 ovarian
HS 578T breast = system: HS 578T breast
SK-MEL-28 melanoma = system: SK-MEL-28 melanoma
MDA-MB-435 = system: MDA-MB-435
M14 melanoma = system: M14 melanoma
786-0 renal = system: 786-0 renal
UACC-62 melanoma = system: UACC-62 melanoma
U251 CNS = system: U251 CNS
COLO 205 colon = system: COLO 205 colon
HCT-15 colon = system: HCT-15 colon
A498 renal = system: A498 renal
SK-MEL-2 melanoma = system: SK-MEL-2 melanoma
CCRF-CEM leukemia = system: CCRF-CEM leukemia
RPMI-8226 leukemia = system: RPMI-8226 leukemia
T-47D breast = system: T-47D breast
HOP-92 NSCLC = system: HOP-92 NSCLC
MDA-N = system: MDA-N
SF-539 CNS = system: SF-539 CNS
MCF7 breast = system: MCF7 breast
SW-620 colon = system: SW-620 colon
MALME-3M melanoma = system: MALME-3M melanoma
NCI/ADR-RES ovarian = system: NCI/ADR-RES ovarian
A549 NSCLC = system: A549 NSCLC
OVCAR-4 ovarian = system: OVCAR-4 ovarian
PC-3 prostate = system: PC-3 prostate
HCT-116 colon = system: HCT-116 colon
SK-MEL-5 melanoma = system: SK-MEL-5 melanoma
SR leukemia = system: SR leukemia
SN12C renal = system: SN12C renal
RXF 393 renal = system: RXF 393 renal
MOLT-4 leukemia = system: MOLT-4 leukemia
NCI-H460 lung = system: NCI-H460 lung
HL-60(TB) leukemia = system: HL-60(TB) leukemia
BT-549 breast = system: BT-549 breast
SNB-75 CNS = system: SNB-75 CNS
HOP-62 NSCLC = system: HOP-62 NSCLC
SK-OV-3 ovarian = system: SK-OV-3 ovarian
OVCAR-3 ovarian = system: OVCAR-3 ovarian
K-562 leukemia = system: K-562 leukemia
ACHN renal = system: ACHN renal
CAKI-1 renal = system: CAKI-1 renal
DU-145 prostate = system: DU-145 prostate
OVCAR-5 ovarian = system: OVCAR-5 ovarian
SF-295 CNS = system: SF-295 CNS
LOX IMVI melanoma = system: LOX IMVI melanoma
UACC-257 melanoma = system: UACC-257 melanoma

SMILES: ClCc1nn(-c2ccccc2)c(CCl)c1CCl
- TGI (MDA-MB-231 breast): 12.1 µM
- TGI (TK-10 renal): 21.3 µM
- TGI (HT29 colon): 9.9 µM
- TGI (UO-31 renal): 11.5 µM
- TGI (OVCAR-8 ovarian): 6.17 µM
- TGI (NCI-H522 lung): 10.2 µM
- TGI (SNB-19 CNS): 19.9 µM
- TGI (NCI-H23 lung): 14.3 µM
- TGI (NCI-H226 lung): 13.9 µM
- TGI (HCC-2998 colon): 24.7 µM
- TGI (KM12 colon): 11.9 µM
- TGI (SF-268 CNS): 17.4 µM
- TGI (EKVX NSCLC): 8.97 µM
- TGI (IGROV1 ovarian): 18.2 µM
- TGI (HS 578T breast): 58.3 µM
- TGI (SK-MEL-28 melanoma): 12.4 µM
- TGI (MDA-MB-435): 6.6 µM
- TGI (M14 melanoma): 10.3 µM
- TGI (786-0 renal): 8.77 µM
- TGI (UACC-62 melanoma): 14.4 µM
- TGI (U251 CNS): 6.05 µM
- TGI (COLO 205 colon): 8.95 µM
- TGI (HCT-15 colon): 9.06 µM
- TGI (A498 renal): 24.5 µM
- TGI (SK-MEL-2 melanoma): 15.5 µM
- TGI (CCRF-CEM leukemia): 6.02 µM
- TGI (RPMI-8226 leukemia): 7.18 µM
- TGI (T-47D breast): 16.4 µM
- TGI (HOP-92 NSCLC): 9.85 µM
- TGI (MDA-N): 8.88 µM
- TGI (SF-539 CNS): 6.34 µM
- TGI (MCF7 breast): 16 µM
- TGI (SW-620 colon): 11.4 µM
- TGI (MALME-3M melanoma): 9.88 µM
- TGI (NCI/ADR-RES ovarian): > 100 µM
- TGI (A549 NSCLC): 24.5 µM
- TGI (OVCAR-4 ovarian): 7.61 µM
- TGI (PC-3 prostate): 18.4 µM
- TGI (HCT-116 colon): 7.54 µM
- TGI (SK-MEL-5 melanoma): 8.43 µM
- TGI (SR leukemia): 4.41 µM
- TGI (SN12C renal): 11.1 µM
- TGI (RXF 393 renal): 15.3 µM
- TGI (MOLT-4 leukemia): 6.76 µM
- TGI (NCI-H460 lung): 12.5 µM
- TGI (HL-60(TB) leukemia): 6.78 µM
- TGI (BT-549 breast): 18.3 µM
- TGI (SNB-75 CNS): 11.4 µM
- TGI (HOP-62 NSCLC): 33.8 µM
- TGI (SK-OV-3 ovarian): 23.3 µM
- TGI (OVCAR-3 ovarian): 11 µM
- TGI (K-562 leukemia): 6.34 µM
- TGI (ACHN renal): 7.62 µM
- TGI (CAKI-1 renal): 20.6 µM
- TGI (DU-145 prostate): 16.6 µM
- TGI (OVCAR-5 ovarian): 15.2 µM
- TGI (SF-295 CNS): 26.5 µM
- TGI (LOX IMVI melanoma): 4.29 µM
- TGI (UACC-257 melanoma): 25 µM

SMILES: CC(C)[C@H](NC(=O)[C@H](C(C)C)N(Cc1ccccc1)Cc1ccccc1)C(=O)N(C)[C@H](C(=O)N1CCC[C@H]1C(=O)N(C)[C@H](C)C(=O)NCc1ccc(F)cc1)C(C)C (Bn2Val-V[NMeV]P[dNMeA]-{NH(4-F-benzyl)})
- TGI (MDA-MB-231 breast): 11.2 µM
- TGI (TK-10 renal): > 61.2 µM
- TGI (HT29 colon): 4.18 µM
- TGI (UO-31 renal): 6.42 µM
- TGI (OVCAR-8 ovarian): > 51.5 µM
- TGI (NCI-H522 lung): 7.61 µM
- TGI (SNB-19 CNS): > 65.6 µM
- TGI (NCI-H23 lung): 32.5 µM
- TGI (NCI-H226 lung): 6.23 µM
- TGI (HCC-2998 colon): 12.8 µM
- TGI (KM12 colon): > 100 µM
- TGI (SF-268 CNS): 10 µM
- TGI (EKVX NSCLC): 18.4 µM
- TGI (IGROV1 ovarian): 9.7 µM
- TGI (HS 578T breast): 24.7 µM
- TGI (SK-MEL-28 melanoma): > 61.7 µM
- TGI (MDA-MB-435): > 31.9 µM
- TGI (M14 melanoma): > 20.3 µM
- TGI (786-0 renal): 36.8 µM
- TGI (UACC-62 melanoma): 9.66 µM
- TGI (U251 CNS): > 25.6 µM
- TGI (COLO 205 colon): 3.28 µM
- TGI (HCT-15 colon): > 80.9 µM
- TGI (A498 renal): 6.71 µM
- TGI (SK-MEL-2 melanoma): 4.03 µM
- TGI (CCRF-CEM leukemia): > 100 µM
- TGI (RPMI-8226 leukemia): > 100 µM
- TGI (T-47D breast): > 83.9 µM
- TGI (HOP-92 NSCLC): 10.3 µM
- TGI (MDA-N): 27.9 µM
- TGI (SF-539 CNS): 7.99 µM
- TGI (MCF7 breast): 7.32 µM
- TGI (SW-620 colon): > 100 µM
- TGI (MALME-3M melanoma): 9.23 µM
- TGI (NCI/ADR-RES ovarian): > 100 µM
- TGI (A549 NSCLC): > 25.2 µM
- TGI (OVCAR-4 ovarian): > 47.4 µM
- TGI (PC-3 prostate): > 25.6 µM
- TGI (HCT-116 colon): 8.82 µM
- TGI (SK-MEL-5 melanoma): 4.7 µM
- TGI (SR leukemia): 4.65 µM
- TGI (SN12C renal): 8.76 µM
- TGI (RXF 393 renal): 7.9 µM
- TGI (MOLT-4 leukemia): > 20.8 µM
- TGI (NCI-H460 lung): > 38.7 µM
- TGI (HL-60(TB) leukemia): 5.52 µM
- TGI (BT-549 breast): 19.1 µM
- TGI (SNB-75 CNS): > 37.5 µM
- TGI (HOP-62 NSCLC): 39.4 µM
- TGI (SK-OV-3 ovarian): > 100 µM
- TGI (OVCAR-3 ovarian): 9.92 µM
- TGI (K-562 leukemia): > 100 µM
- TGI (ACHN renal): 20.6 µM
- TGI (CAKI-1 renal): > 63.1 µM
- TGI (DU-145 prostate): > 100 µM
- TGI (OVCAR-5 ovarian): 15.4 µM
- TGI (SF-295 CNS): 13.6 µM
- TGI (LOX IMVI melanoma): 3.52 µM
- TGI (UACC-257 melanoma): > 47.4 µM
